Data as given in patent publication EP0719251B1, “BICYCLO (2.2.2) OCTANE DERIVATIVES CHOLECYSTOKININ AND/OR GASTRIN ANTAGONISTS” (JAMES BLACK FOUNDATION LIMITED, priority 1993, dated 1995).

Legend:
CCKB receptor = molecular target: T1, CCKB receptor (Mus musculus, UniProt P56481); test: radioligand binding assay at the CCKB receptor in mouse cortical membranes; conditions: [125I]-CCK8S 200pM, 150 min at 21 ± 3°C; for Ki: read-out: CCKB pKi (converted)
T1 construct: The whole brains from male mice (CD1 22-25g; Charles River) were removed; from tissue; host or cells: cerebral cortex membranes of male CD1 mice
T1 sequence (P56481 1-453): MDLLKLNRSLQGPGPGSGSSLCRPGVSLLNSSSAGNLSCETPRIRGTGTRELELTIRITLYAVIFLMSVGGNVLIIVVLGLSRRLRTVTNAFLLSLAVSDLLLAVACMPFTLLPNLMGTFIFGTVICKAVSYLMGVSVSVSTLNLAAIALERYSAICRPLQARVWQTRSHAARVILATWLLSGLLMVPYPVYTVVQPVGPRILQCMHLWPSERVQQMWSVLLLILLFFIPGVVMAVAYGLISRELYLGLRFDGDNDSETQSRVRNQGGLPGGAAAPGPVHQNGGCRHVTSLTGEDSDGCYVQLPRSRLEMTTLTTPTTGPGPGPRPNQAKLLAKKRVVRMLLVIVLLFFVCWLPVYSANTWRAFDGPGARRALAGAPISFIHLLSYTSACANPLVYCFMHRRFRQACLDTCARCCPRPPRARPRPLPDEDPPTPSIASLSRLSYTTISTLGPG
Experimental: The compounds of the examples were tested for binding at the CCKB receptor in mouse cortical membranes by means of a radioligand binding assay. The procedure was as follows:
The whole brains from male mice (CD1 22-25g; Charles River) were removed and placed in ice-cold buffer (pH7.2 @ 21 ± 3°C) of the following composition (mM); 10 HEPES, 130 NaCl, 4.7 KCl, 5 MgCl2, 1 EDTA and containing 0.25g.l^-1 bacitracin. The cortex was dissected, weighed and homogenised in 40ml ice-cold buffer using a Teflon-in-glass homogeniser. The homogenate was centrifuged at 39,800g for 20 min at 4°C, the supernatant discarded and the pellet resuspended by homogenisation in fresh buffer. The homogenate was recentrifuged (39,800g; 20 min @ 4°C) and the final pellet was resuspended in HEPES buffer to give a tissue concentration of 2mg.ml^-1(original wet weight).
The assay was terminated by rapid filtration through pre-soaked Whatman GF/B filters using a Brandell Cell harvester. The filters were washed (3 x 3ml) with ice-cold 50mM Tris-HCl (pH7.4 @ 4°C) and bound radioactivity determined by counting (1 min.) in a gamma-counter.

gastrin = molecular target: T2, gastrin (Rattus norvegicus, UniProt P30553); test: gastrin antagonist activity in an immature rat stomach assay; conditions: isolated immature rat stomach, cumulative pentagastrin dose-response curves, acid secretion; for Kb: read-out: Gastrin pKB (converted)
T2 construct: The stomach was excised and flushed with ca. 1 ml of unbuffered physiological saline solution; from tissue; host or cells: isolated whole stomach of immature rats (33-50 g, ca. 21 days old)
T2 sequence (P30553 1-452): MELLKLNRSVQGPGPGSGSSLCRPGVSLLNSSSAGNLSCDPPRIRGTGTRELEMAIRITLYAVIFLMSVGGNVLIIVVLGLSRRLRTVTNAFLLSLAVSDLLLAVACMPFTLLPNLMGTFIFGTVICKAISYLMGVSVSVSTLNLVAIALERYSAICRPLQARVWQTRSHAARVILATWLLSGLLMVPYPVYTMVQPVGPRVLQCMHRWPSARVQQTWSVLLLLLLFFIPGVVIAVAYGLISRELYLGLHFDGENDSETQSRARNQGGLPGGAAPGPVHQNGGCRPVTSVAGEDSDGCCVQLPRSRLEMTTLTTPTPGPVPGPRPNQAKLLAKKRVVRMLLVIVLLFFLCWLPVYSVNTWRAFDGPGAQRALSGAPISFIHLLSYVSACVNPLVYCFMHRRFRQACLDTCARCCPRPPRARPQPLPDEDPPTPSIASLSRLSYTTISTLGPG
Experimental: The compounds of the examples were also tested for gastrin antagonist activity in an immature rat stomach assay. The procedure was as follows: The oesophagus of immature rats (33-50 g, ca. 21 days old) was ligated at the level of the cardiac sphincter and the duodenal sphincter was cannulated. The stomach was excised and flushed with ca. 1 ml of unbuffered physiological saline solution. The fundus was punctured and cannulated. A further 4-5 ml of unbuffered solution was flushed through the stomach to ensure the preparation was not leaking. […] The stomach was continuously perfused at a rate of 1 ml min^-1 with unbuffered solution gassed with 100% O2 with the perfusate passing over an internally referenced pH-electrode fixed 12 cm above the stomach. After 120 min of stabilisation the drugs were added directly to the serosal solution in the organ bath and after a further 60 min cumulative pentagastrin dose-response curves were started.

Compound | CCKB pKi (CCKB receptor) | Ki (CCKB receptor) [µM] | Kb (gastrin) [µM] | Gastrin pKB (gastrin; 60 min)
cis-7-(1S-(3-carboxyphenylaminocarbonyl)-2- (2-thiophenyl)ethylaminocarbonyl)-8-(1-naphthalenemethylaminocarbonyl) -2,3,5,6-dibenzobicyclo[2.2.2]octane [Example 57] | 7.2 | – | – | –
O=C(O)c1cc(NC(=O)[C@H](Cc2ccc(O)cc2)NC(=O)C2C3c4ccccc4C(c4ccccc43)C2C(=O)NCC23CC4CC(CC(C4)C2)C3)cc(C(=O)O)c1 (single isomer, unassigned) [Example 24, cis-7-(1S-(3,5-dicarboxyphenylaminocarbonyl) -2-(4-hydroxyphenyl) -ethylaminocarbonyl)-8-(1-adamantanemethylaminocarbonyl) -2,3,5,6-dibenzobicyclo[2.2.2]octane] | – | 0.00158 | 0.00126 | –
O=C(O)c1cc(NC(=O)[C@@H](Cc2ccc(O)cc2)NC(=O)C2C3c4ccccc4C(c4ccccc43)C2C(=O)NCC23CC4CC(CC(C4)C2)C3)cc(C(=O)O)c1 (single isomer, unassigned) [Example 27, cis-7-(1R-(3,5-dicarboxyphenylaminocarbonyl)-2-(4-hydroxyphenyl)ethylaminocarbonyl)-8-(1-adamantanemethylaminocarbonyl)-2,3,5,6-dibenzobicyclo [2.2.2]octane] | – | 0.0158 | 0.00794 | –
O=C(NCC12CC3CC(CC(C3)C1)C2)C1C2c3ccccc3C(c3ccccc32)C1C(=O)N[C@@H](Cc1ccccc1)C(=O)Nc1ccccc1 (single isomer, unassigned) [Example 23, cis-7-(1S-(phenylaminocarbonyl)-2-phenylethylaminocarbonyl)-8-(1-adamantanemethylaminocarbonyl)-2,3,5,6-dibenzobicyclo[2.2.2]octane] | – | – | 0.251 | –
cis-7-(1S-(3-carboxyphenylaminocarbonyl)-2-phenylethylaminocarbonyl)-8-(1-naphthalenemethylaminocarbonyl)-2,3,5,6-dibenzobicyclo[2.2.2]octane [Example 59] | 7.2 | – | – | –
O=C(O)c1cc(NC(=O)[C@H](Cc2ccc(O)cc2)NC(=O)C2C3c4ccccc4C(c4ccccc43)C2C(=O)NCC23CC4CC(CC(C4)C2)C3)cc(C(=O)O)c1 (single isomer, unassigned) [Example 25, cis-7-(1S-(3,5-dicarboxyphenylaminocarbonyl)-2-(4-hydroxyphenyl)ethylaminocarbonyl)-8-(1-adaxantanemethylaminocarbonyl)-2,3,5,6-dibenzobicyclo[2.2.2]octane] | – | – | 0.0631 | –
O=C(O)c1cc(NC(=O)[C@@H](Cc2ccc(O)cc2)NC(=O)C2C3c4ccccc4C(c4ccccc43)C2C(=O)NCC23CC4CC(CC(C4)C2)C3)cc(C(=O)O)c1 (single isomer, unassigned) [Example 26, cis-7-(1R-(3,5-dicarboxyphenylaminocarbonyl)-2-(4-hydroxyphenyl)-ethylaminocarbonyl)-8-(1-adamantanemethylaminocarbonyl) -2,3,5,6-dibenzobicyclo [2.2.2]octane] | – | – | 0.158 | –

The remaining lines, values ahead:

CCKB pKi (CCKB receptor) | Ki (CCKB receptor) [µM] | Kb (gastrin) [µM] | Gastrin pKB (gastrin; 60 min) | Compound
– | 0.126 | – | – | O=C(O)c1ccc(NC(=O)[C@H](Cc2ccccc2)NC(=O)C2C3c4ccccc4C(c4ccccc43)C2C(=O)NCC23CC4CC(CC(C4)C2)C3)cc1 (single isomer, unassigned) [Example 47]
– | 0.501 | – | – | O=C(O)c1cccc(NC(=O)[C@H](Cc2cccs2)NC(=O)C2C3c4ccccc4C(c4ccccc43)C2C(=O)NCc2cccc3ccccc23)c1 (single isomer, unassigned) [Example 58, cis-7-(1S-(3-carboxyphenylaminocarbonyl)-2-(2-thiophenyl)ethylaminocarbonyl)-8-(1-naphthalenemethylaminocarbonyl)-2,3,5,6-dibenzobicyclo[2.2.2]octane]
– | 10 | – | – | COC(=O)c1cc(NC(=O)[C@H](Cc2ccccc2)NC(=O)C2C3c4ccccc4C(c4ccccc43)C2C(=O)NCC23CC4CC(CC(C4)C2)C3)cc(C(=O)OC)c1 (single isomer, unassigned) [Example 48]
6.5 | – | – | 6.9 | O=C(NCC12CC3CC(CC(C3)C1)C2)C1C2c3ccccc3C(c3ccccc32)C1C(=O)N[C@@H](Cc1ccccc1)C(=O)Nc1cc(-c2nnn[nH]2)cc(-c2nnn[nH]2)c1 (stereo partly drawn) [Example 44, cis-7-(1S-(3,5-ditetrazolylphenylaminocarbonyl) -2-phenylethylaminocarbonyl) -8-(1-adamantanemethylaminocarbonyl)-2,3,5,6-dibenzobicyclo[2.2.2] octane]
– | 0.00398 | 0.00398 | – | O=C(O)c1cc(NC(=O)[C@H](Cc2ccccc2)NC(=O)C2C3c4ccccc4C(c4ccccc43)C2C(=O)NCC2CCCCCC2)cc(C(=O)O)c1 (single isomer, unassigned) [Example 28, cis-7-(1S-(3,5-dicarboxyphenylaminocarbonyl) -2-phenylethylaminocarbonyl)-8-(1-cycloheptane-methylaminocarbonyl) -2,3,5,6-dibenzobicyclo[2.2.2]octane]
– | 0.158 | 2 | – | O=C(O)c1ccc(NC(=O)[C@H](Cc2ccccc2)NC(=O)C2C3c4ccccc4C(c4ccccc43)C2C(=O)NCC23CC4CC(CC(C4)C2)C3)cc1 (single isomer, unassigned) [Example 46, cis-7-(1S-(4-carboxy-phenylaminocarbonyl) -2-phenylethylaminocarbonyl)-8-(1-adamantane-methylaminocarbonyl) -2,3,5,6-dibenzobicyclo[2.2.2]octane]
– | 0.398 | – | – | O=C(O)c1cccc(NC(=O)[C@H](Cc2ccccc2)NC(=O)C2C3c4ccccc4C(c4ccccc43)C2C(=O)NCc2cccc3ccccc23)c1 (single isomer, unassigned) [Example 60, cis-7-(1S-(3-carboxyphenylaminocarbonyl)-2-phenylethylaminocarbonyl)-8-(1-naphthalenemethylaminocarbonyl)-2,3,5,6-dibenzobicyclo [2.2.2]octane]
– | 0.0398 | 0.1 | – | O=C(O)c1cc(NC(=O)[C@H](Cc2ccccc2)NC(=O)C2C3c4ccccc4C(c4ccccc43)C2C(=O)NCC2CCCCCC2)cc(C(=O)O)c1 (single isomer, unassigned) [Example 29, cis-7-(1S-(3,5-dicarboxyphenylaminocarbonyl) -2-phenylethylaminocarbonyl) -8-(cycloheptanemethyl-aminocarbonyl)-2,3,5,6-dibenzobicyclo[2.2.2]octane]
